Where “and” joins values, the source holds several entries; their conditions need not be identical. Identical values can stand only once.

The test system of assay [1] is Pfu fusion DNA polymerase. In words: Endpoint PCR with Pfu fusion DNA polymerase, detergent/surfactant added to detergent-free PCR buffer. Format: biochemical, Pyrococcus furiosus. As to conditions: for detergent concentration at which amplifications generated product yields (FIG. 1): individual detergent in fusion PCR buffer, genomic DNA targets, no product in absence of detergent.

Assay [2] deals with T1, Pfu DNA polymerase (Pyrococcus furiosus, UniProt P61875).
T1 sequence (P61875 1-775): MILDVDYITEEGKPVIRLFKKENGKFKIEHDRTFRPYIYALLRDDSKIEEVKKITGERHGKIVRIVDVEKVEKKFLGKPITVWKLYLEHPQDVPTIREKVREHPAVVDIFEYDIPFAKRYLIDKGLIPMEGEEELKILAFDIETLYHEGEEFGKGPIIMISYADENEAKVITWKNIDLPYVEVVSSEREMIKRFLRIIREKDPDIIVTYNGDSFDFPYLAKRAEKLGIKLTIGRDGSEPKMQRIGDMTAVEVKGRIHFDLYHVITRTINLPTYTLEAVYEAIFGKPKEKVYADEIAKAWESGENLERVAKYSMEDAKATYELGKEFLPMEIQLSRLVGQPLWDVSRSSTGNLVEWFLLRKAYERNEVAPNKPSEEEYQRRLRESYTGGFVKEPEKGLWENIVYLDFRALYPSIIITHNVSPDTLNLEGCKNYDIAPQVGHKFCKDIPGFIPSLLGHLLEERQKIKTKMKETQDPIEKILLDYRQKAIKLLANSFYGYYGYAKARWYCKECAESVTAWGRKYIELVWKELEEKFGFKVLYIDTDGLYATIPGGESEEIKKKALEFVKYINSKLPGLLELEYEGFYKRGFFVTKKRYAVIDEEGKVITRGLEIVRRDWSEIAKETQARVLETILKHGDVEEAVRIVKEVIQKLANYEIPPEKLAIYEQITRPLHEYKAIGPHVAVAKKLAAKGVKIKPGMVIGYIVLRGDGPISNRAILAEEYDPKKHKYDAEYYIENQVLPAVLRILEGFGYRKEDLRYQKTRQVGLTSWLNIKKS
The experiment in a line: Endpoint PCR with Pfu DNA polymerase, detergent/surfactant added to detergent-free PCR buffer. In kind it is biochemical. As to conditions: for product yields on addition of zwitterionic detergent to PCR buffer (FIG. 5): versus buffer lacking detergent, which failed to generate product. The method, then: Pfu (exo+ and exo−) fusion DNA polymerase (e.g., as described in U.S. patent application Ser. No.: 11/488,535, filed Jul. 17, 2006, and herein incorporated by reference in its entirety), cPfu DNA polymerase (Stratagene catalog #600154), and PEF were purified using standard production protocols (no detergent present), except that non-ionic detergents were omitted from the final storage buffers. Enzymes were stored at −20° C. in 50 mM Tris-HCl (pH 8.2), 0.1 mM EDTA, 1 mM DTT, and 50% glycerol. DNA polymerase storage buffers were additionally supplemented with one or more zwitterionic detergents, in percentages (v/v) ranging from 0.05% to 0.5%.
PCR reaction buffers were prepared without non-ionic detergents (“DF buffer”, detergent-free buffer). For example, 1× cPfu DF-buffer contains 10 mM KCl, 10 mM (NH4)2SO4, 20 mM Tris HCl (pH 8.8), 2 mM MgSO4, and 100 ug/ml BSA. Detergent-free versions of Pfu fusion buffers were also prepared, and consisted of: 40 mM Tris-SO4 (pH 10), 15 mM K2SO4, 8 mM (NH4)2SO4, 2 mM MgSO4 (1× Pfu fusion DF-buffer I) or 30 mM Tris-SO4 (pH 10), 40 mM K2SO4, 1.5 mM (NH4)2SO4, 2 mM MgSO4 (1× Pfu fusion DF-buffer II).
PCR reaction buffers were supplemented with 0.1% Triton X100 (non-ionic detergent) or with one or more zwitterionic detergents or non-detergent surfactants. For example, zwitterionic detergents CHAPS, CHAPSO, 3-10, and 3-12 were obtained from AnaTrace, Inc. (Maumee, Ohio) and added to DF-buffers in percentages (v/v) ranging from 0.05% to 0.5%. The non-detergent surfactant, Surfynol 465, was purchased from Air Products and used in a similar fashion.
For the 0.9 kb and 6 kb systems, PCR reactions (50 ul) were conducted with 40 ng cPfu DNA polymerase in IX cPfu DF-buffer or with 28 ng or 224 ng Pfu fusion DNA polymerase in 1× Pfu fusion DF-buffer I or DF-buffer II, respectively. PCR reactions also contained 2 U/50 ul Pyrococcus furiosus dUTPase (PEF), 100 ng of human genomic DNA, 250 uM each dNTP, and 100 ng of each primer. For the 9 kb system, PCR reactions (50 ul) consisted of 80 ng Pfu, 1.5× cPfu DF-buffer, 2U Pyrococcus furiosus dUTPase (PEF), 200 ng of human genomic DNA, 500 uM each dNTP, and 200 ng of each primer. PCR reaction buffers were supplemented with 0.1% Triton X100 or with zwitterionic detergent(s).

Assay [3] concerns Pfu and Pfu fusion DNA polymerase. The experiment in a line: Endpoint PCR, enhancing detergents and detergent combinations (Table 2). Format: biochemical, Pyrococcus furiosus. As to conditions: for Effective range, Detergent 1 (single detergent) / Optimal range, Detergent 1 (single detergent): endpoint PCR, detergent alone.
For assay [4], the system named is Pfu fusion DNA polymerase. The experiment in a line: SYBR Green QPCR with Pfu fusion DNA polymerase. As to conditions: for Effective range, concentration of each detergent in combination, SYBR Green QPCR: combination CHAPS (0.1%) + Anz. 3-10 (0.02-0.15%); for Optimal range, concentration of each detergent in combination, SYBR Green QPCR: combination CHAPS (0.1%) + Anz. 3-10 (0.05-0.15%); for Effective range, Detergent 1 (single detergent), SYBR Green QPCR / Optimal range, Detergent 1 (single detergent), SYBR Green QPCR: detergent alone. In kind it is biochemical, Pyrococcus furiosus. The method, then:
QPCR reactions contained DNA or cDNA template, varying amounts of primer (see Table 3 below), 300 uM each dNTP, 4 ng/ul exo Pfu fusion, 6 ng/ul hot start IgG, 0.4ng/ul single-stranded DNA-binding protein, 1× Pfu fusion DF-buffer II (pH 9), 4% DMSO, and 8% glycerol. QPCR reactions were supplemented with 0.1% Triton X100 or zwitterionic detergent, and with 0.5× SYBR Green (Molecular Probes S-7567). Reactions were cycled on the MX3000P Real-Time PCR System using the following conditions: (1 cycle) 95° C. 5 min; (40 cycles) 95° C. 10 sec, 60° C. 30 sec.

Assay [5] deals with Pfu fusion DNA polymerase. The experiment in a line: Accelerated stability study of Pfu fusion DNA polymerase in storage buffer, residual activity by 0.9 kb PCR. In kind it is biochemical, Pyrococcus furiosus. As to conditions: detergent in storage buffer. The method, then:
Accelerated stability studies were performed to illustrate the stabilizing effects of zwitterionic detergents. Pfu fusion DNA polymerase was purified in the absence of detergents and then diluted to 28 ng/ul in storage buffer lacking detergent or storage buffers containing either conventional non-ionic detergent (0.1% Igepal/0.1% Triton X100) or various zwitterionic detergents. Protein samples were stored at −20° C. or were heated at 95° C. for varying lengths of time. Residual activity was assayed by amplifying a 0.9 kb genomic target in PCR in fusion DF-buffer supplemented with either 0.1% Triton X100 or 0.1% CHAPSO/0.1% Anzergent 3-12.

Where [6] appears, read: 0.05% of the individual detergent.
The mark [7] stands for this setting: combination CHAPS (0.05, 0.1%) + Anz. 3-10 (0.1-0.5%).
Setting [8] is: combination CHAPS (0.05%) + Anz. 3-12 (0.05-0.3%).
Setting [9] is: combination CHAPS (0.05%) + Anz. 3-12 (0.05-0.5%).
Setting [10] is: combination CHAPS (0.1%) + Anz. 3-12 (0.05-0.5%).

As to `CCCCCCCCCC[N+](C)(C)CCCS(=O)(=O)[O-]` [Anzergent 3-10, n-Decyl-N,N-dimethyl-3-ammonio-1-propanesulfonate], the “PCR amplification with detergent alone (FIG. 2)” value in assay [1] (setting [6]) is “little amplification”. Besides, the “detergent concentration with favorable result on PCR amplification (FIG. 2)” value in assay [1] (individual detergent added to the reaction) is 0.4% and 0.8%. Also, the “detergent concentration at which amplifications generated product yields (FIG. 1)” value in assay [1] is given as 0.4-0.8%. Further, in assay [2], the “product yields on addition of zwitterionic detergent to PCR buffer (FIG. 5)” value (shortened to “product yields on addition”) is on record as “dramatically improved”. In addition, in assay [3] (setting [7]), the “Effective range, concentration of each detergent in combination” value is “Anz. 3-10 (0.1-0.5%)” and the “Optimal range, concentration of each detergent in combination” value is on record as “Anz. 3-10 (0.1-0.5%)”. The “Optimal range, concentration of each detergent in combination” value in assay [3] (combination CHAPSO (0.1%) + Anz. 3-10 (0.05-0.4%)) is “Anz. 3-10 (0.05-0.4%)”. For the same compound, the “Effective range, concentration of each detergent in combination” value in assay [3] (combination CHAPSO (0.1%) + Anz. 3-10 (0.05-0.5%)) was “Anz. 3-10 (0.05-0.5%)”. Besides, in assay [3], the “Effective range, Detergent 1 (single detergent)” value is reported as “Anz. 3-10 (0.4-0.8%)” and the “Optimal range, Detergent 1 (single detergent)” value is reported as “Anz. 3-10 (0.4-0.8%)”. In addition, in assay [4], the “Effective range, concentration of each detergent in combination, SYBR Green QPCR” value was “Anz. 3-10 (0.02-0.15%)”; the “Optimal range, concentration of each detergent in combination, SYBR Green QPCR” value is reported as “Anz. 3-10 (0.05-0.15%)”; the “Effective range, Detergent 1 (single detergent), SYBR Green QPCR” value is reported as “Anz. 3-10 (0.1-0.3%)”; the “Optimal range, Detergent 1 (single detergent), SYBR Green QPCR” value is “Anz. 3-10 (0.2%)”.

Consider `CCCCCCCCCCCC[N+](C)(C)CCCS(=O)(=O)[O-]` [Anzergent 3-12, n-Dodecyl-N,N-dimethyl-3-ammonio-1-propanesulfonate], for which, in assay [1] (setting [6]), the “PCR product with detergent alone (FIG. 3)” value was “did not show observable levels of PCR product”. Further, the “detergent concentration at which amplifications generated product yields (FIG. 1)” value in assay [1] is on record as 0.1-0.2%. Moreover, in assay [2] (CHAPSO 0.05-0.2%, Anzergent 3-12 0.1-0.2%, in PCR buffer), the “effectiveness relative to CHAPS and Anzergent 3-10 (FIG. 5)” value is on record as “somewhat more effective”. Besides, the “product yields on addition” value in assay [2] is listed as “dramatically improved”. Besides, the “Optimal range, concentration of each detergent in combination” value in assay [3] (setting [8]) is listed as “Anz. 3-12 (0.05-0.3%)”; in assay [3] (setting [10]) it was “Anz. 3-12 (0.05-0.5%)”. Besides, the “Effective range, concentration of each detergent in combination” value in assay [3] (setting [9]) is “Anz. 3-12 (0.05-0.5%)”; in assay [3] (setting [10]), “Anz. 3-12 (0.05-0.5%)”; in assay [3] (combination CHAPSO (0.05%, 0.1%) + Anz. 3-12 (0.05-0.5%)) it was “Anz. 3-12 (0.05-0.5%)”. Further, in assay [3], the “Effective range, Detergent 1 (single detergent)” value is “Anz. 3-12 (0.1-0.4%)”. The “Optimal range, Detergent 1 (single detergent)” value in assay [3] is “Anz. 3-12 (0.1-0.2%)”. The “effect on stability of Pfu fusion DNA polymerase (FIG. 6)” value in assay [5] is on record as “enhance the stability”. Also, the “Effective range, Detergent 1 (single detergent), SYBR Green QPCR” value in assay [4] is on record as “Anz. 3-12 (0.1-0.2%)”. The “Optimal range, Detergent 1 (single detergent), SYBR Green QPCR” value in assay [4] is listed as “Anz. 3-12 (0.15-0.2%)”.

Turning to `C[C@H](CCC(=O)NCCC[N+](C)(C)CCCS(=O)(=O)[O-])[C@H]1CC[C@H]2[C@@H]3[C@H](O)C[C@@H]4C[C@H](O)CC[C@]4(C)[C@H]3C[C@H](O)[C@]12C` [CHAPS], in assay [2], the “product yields on addition” value was “dramatically improved”. The “Optimal range, concentration of each detergent in combination” value in assay [3] (setting [8]) is given as “CHAPS (0.05%)”. Besides, in assay [3] (setting [9]), the “Effective range, concentration of each detergent in combination” value is “CHAPS (0.05%)”. Moreover, the “Effective range, concentration of each detergent in combination” value in assay [3] (combination CHAPS (0.05-0.5%) + CHAPSO (0.05-0.3%)) was “CHAPS (0.05-0.5%)”. Further, in assay [3] (setting [10]), the “Effective range, concentration of each detergent in combination” value was “CHAPS (0.1%)” and the “Optimal range, concentration of each detergent in combination” value was “CHAPS (0.1%)”. In addition, in assay [3], the “Effective range, Detergent 1 (single detergent)” value is “CHAPS (0.2-0.8%)” and the “Optimal range, Detergent 1 (single detergent)” value is “CHAPS (0.2-0.4%)”. In addition, the “effect on stability of Pfu fusion DNA polymerase (FIG. 6)” value in assay [5] is listed as “enhance the stability”. Besides, in assay [4] (0.5% detergent), the “QPCR amplification efficiency, total fluorescence and Ct values versus 0.1% Triton X100 (FIG. 7)” value is given as “comparable”. Moreover, in assay [4] (0.5% detergent, aldolase and GDH gene targets), the “amplification efficiency, total fluorescence and Ct values (FIG. 8)” value is recorded as “favorable”. Also, in assay [4], the “Effective range, concentration of each detergent in combination, SYBR Green QPCR” value is listed as “CHAPS (0.1%)”; the “Optimal range, concentration of each detergent in combination, SYBR Green QPCR” value is listed as “CHAPS (0.1%)”; the “Effective range, Detergent 1 (single detergent), SYBR Green QPCR” value was “CHAPS (0.1-0.5%)”; the “Optimal range, Detergent 1 (single detergent), SYBR Green QPCR” value is on record as “CHAPS (0.5%)”.

Values taken from patent US20080064071A1, “Zwitterionic detergents for the storage and use of DNA polymerases” (priority 2006, published 2008).
